# Test results published in patent US20100063009A1, “Pharmaceutical Combination Comprising 6-Dimethylaminomethyl-1-(3-methoxy-phenyl)-cyclohexane-1.3-diol and an NSAID” (GRUENENTHAL GmbH, priority 2008, published 2010).
# Where “and” joins values, the source holds several entries; their conditions need not be identical. Equal entries are not always repeated. Structures can show the parent of a compound that is named as a salt. Where two headings read alike, the source gives them in different places.
# System: inflamed rat hind paw
# Assay: Randall-Selitto test in rats (carrageenan-induced inflammatory pain, mechanical nociceptive threshold)
# Assay type: in vivo
# Conditions: for ED50: Rattus norvegicus; for timepoint of peak effect: substance applied alone, A i.v., NSAIDs i.p.
# Description: The weight ratios of the components (a) and (b) that will lead to a supra-additive effect (synergistic effect) of the inventive pharmaceutical composition may be determined via the test of Randall and Selitto as described in Arch. Int. Pharmacodyn., 1957, 111: 409 to 419, which is a model for inflammatory pain. The respective part of the literature is hereby incorporated by reference and forms part of the present disclosure.
# Acute inflammation is induced by an intraplantar injection of 0.1 ml of a carrageenan solution (0.5% in distilled water) into one hind paw. The mechanical nociceptive threshold is measured 4 hours after carrageenan injection using an Algesiometer (Ugo Basile, Italy). The device generates a mechanical force with a linear increase over time. The force is applied to the dorsal surface of the inflamed rat hind paw via a cone-shaped stylus with a rounded tip (2 mm tip diameter). The nociceptive threshold is defined as the force (in grams) at which the rat vocalises (cut-off force 250 g). The mechanical nociceptive threshold is measured at different timepoints after the drug or vehicle administration. The antinociceptive and antihyperalgesic activity of the tested substance is expressed as percentages of the maximal possible effect (% MPE). The group size is n=10.
# The interactions studies presented herein were performed using equieffective doses of the two components, calculated from the ratio of the respective ED50 values of the components if administered alone.
# The route of administration was intravenous (i.v.) for (1RS,3RS,6RS)-6-dimethylaminomethyl-1-(3-methoxy-phenyl)-cyclohexane-1,3-diol hydrochloride (A) and intraperitoneal (i.p.) for the NSAIDs diclofenac, ibuprofen, metamizol-sodium and naproxen. […] (diclofenac, ibuprofen) and 45 min p. appl. (naproxen, metamizol-sodium).
# [1] = ip, measured at peak effect 30 min (diclofenac, ibuprofen) or 45 min (naproxen, metamizol-sodium) p. appl., n=10, read-out: ED50 of the NSAID applied alone
compound,measurement,setting,value
"O=C(O)Cc1ccccc1Nc1c(Cl)cccc1Cl [Diclofenac, diclofenac]",ED50,[1],146 mg/kg
same,timepoint of peak effect,,30 min p. appl.
"COc1ccc2cc([C@H](C)C(=O)O)ccc2c1 [Naproxen, naproxen]",ED50,[1],164 mg/kg
same,timepoint of peak effect,,45 min p. appl.
CC(C)Cc1ccc(C(C)C(=O)O)cc1 (centres unmarked) [Ibuprofen],ED50,[1],139 mg/kg
same,timepoint of peak effect,,30 min p. appl.
"COc1cccc([C@@]2(O)C[C@H](O)CC[C@@H]2CN(C)C)c1 (racemic) [A, (1RS,3RS,6RS)-6-dimethylaminomethyl-1-(3-methoxy-phenyl)-cyclohexane-1,3-diol hydrochloride]",ED50,"iv, measured at peak effect 15 min p. appl., 4 h after carrageenan, % MPE, n=10, 95% range in brackets, read-out: ED50 of A applied alone",15.8 mg/kg
same,ED50 of A applied alone,"i.v., measured at peak effect 15 min p. appl., 4 h after carrageenan, % MPE, n=10, 95% range in brackets, hydrochloride",14.5 (13.3-15.6) mg/kg and 14.1 (13.2-15.1) mg/kg
same,timepoint of peak effect,,15 min p. appl.
"Cc1c(N(C)CS(=O)(=O)[O-])c(=O)n(-c2ccccc2)n1C.[Na+] [Metamizol-Sodium, metamizol-sodium]",ED50 of the NSAID applied alone,"i.p., measured at peak effect 30 min (diclofenac, ibuprofen) or 45 min (naproxen, metamizol-sodium) p. appl., n=10",88.1 (77.5-98.3) mg/kg
same,timepoint of peak effect,,45 min p. appl.
